Assay results: PMC10054634, “Chemical Constituents of Thesium chinense Turcz and Their In Vitro Antioxidant, Anti-Inflammatory and Cytotoxic Activities” (Molecules, 2023)

How the values were obtained:
[1] = test system: SiHa; experiment: Cytotoxic assay (CCK-8), SiHa; format: cell-based, human; conditions: 48 h, mean ± SD (n = 3)
Method: (§1) Four human cancer cell lines, A549, NCI-H292, SiHa and MKN45, were purchased from the Cell Bank of the Chinese Academy of Sciences (Shanghai, China). […] Cisplatin (Abmole Bioscience, Shanghai, China) was used as positive control.
(§2) A total of 180 μL of cancer cells (5 × 10^3) were plated in each well of 96-well plates and cultured for 24 h, then the supernatant of the culture was discarded and 180 μL complete medium with different concentrations of test samples were added into triplicate wells of each cell line, respectively. Thereafter, A549, NCI-H292, SiHa and MKN45 were incubated for 48 h, respectively. The cell viability was evaluated by Cell Counting Kit-8 (CCK-8, Best Bio., Beijing, China), respectively. The experiments were performed in triplicate, and the data were expressed as the means ± SD of three independent experiments.

[2] = test system: MKN45; experiment: Cytotoxic assay (CCK-8), MKN45; format: cell-based, human; conditions: mean ± SD (n = 3)
Method: as §1, §2

[3] = Cytotoxicity in RAW 264.7 cells (CCK-8); conditions: mouse
Method: The cell viability was determined by the CCK-8 assay method. The cytotoxicity was calculated from the plotted results using untreated cells at 100%.

[4] = test system: A549; experiment: Cytotoxic assay (CCK-8), A549; format: cell-based, human; conditions: A549, 48 h, mean ± SD (n = 3)
Method: as §1, §2

[5] = test system: NO production in LPS-activated RAW 264.7 cells; experiment: Inhibition of NO production in LPS-activated RAW 264.7 cells (Griess reaction); format: cell-based; conditions: Mus musculus, RAW264.7; RAW 264.7, 1 μg/mL LPS, 24 h; mean ± SD (n = 3); read-out: IC50 (NO inhibitory activity)
Method: The macrophage RAW 264.7 cells were obtained from the Cell Bank of the Chinese Academy of Sciences (Shanghai, China). A total of 180 μL of RAW 264.7 cells (1 × 10^4) were plated respectively in each well of 96-well plate and cultured for 24 h, then the supernatant of the culture was discarded and 180 μL complete medium with 1 μg/mL LPS and different concentrations of test samples were added into triplicate wells for 24 h. The inhibition effects on LPS-stimulated NO production was evaluated by the Griess reaction assay. The experiments were performed in triplicate, and the data were expressed as the means ± SD of three independent experiments.

[6] = test system: NCI-H292; experiment: Cytotoxic assay (CCK-8), NCI-H292; format: cell-based, human; conditions: NCI-H292, 48 h, mean ± SD (n = 3)
Method: as §1, §2

[7] = Homo sapiens, MKN-45, MKN45, 48 h

IC50 [5] [µM]	Compound	IC50 ([1]; Homo sapiens) [µM]	IC50 [2, 7] [µM]	IC50 [3] [µM]	IC50 ([4]; Homo sapiens) [µM]	IC50 ([6]; Homo sapiens) [µM]	IC50 ([2]; MKN45, 48 h) [µM]	IC50 [4] [µM]	IC50 [6] [µM]	IC50 [1] [µM]
> 200	OCCc1ccc(O)c(O[C@@H]2O[C@H](CO)[C@@H](O)[C@H](O)[C@H]2O[C@@H]2O[C@H](CO)[C@@H](O)[C@H](O)[C@H]2O)c1 [Compound 2, 3,4-dihydroxyphenethyl alcohol 3-O-β-D-glucopyranosyl (1→2)-β-D-glucopyranoside]	> 200	> 200	> 200	> 200	> 200	–	–	–	–
> 200	CC/C=C\CCO[C@@H]1O[C@H](CO)[C@@H](O)[C@H](O)[C@H]1O[C@@H]1O[C@H](CO)[C@@H](O)[C@H](O)[C@H]1O [Compound 3, (Z)-hex-3-ene 3-O-β-D-glucopyranosyl (1→2)-β-D-glucopyranoside]	> 200	> 200	> 200	> 200	> 200	–	–	–	–
> 200	OCC1OC(OC2C(OCCc3ccccc3)OC(CO)C(O)C2O)C(O)C(O)C1O (stereo not drawn) [Compound 8, phenethyl alcohol β-sophoroside]	> 200	> 200	> 200	> 200	> 200	–	–	–	–
> 200	COc1cc(C2Oc3c(OC)cc(CCCO)cc3C2CO)ccc1OC1OC(CO)C(O)C(O)C1O [Compound 12, dihydrodehydro diconiferyl alcohol 4-O-β-D-glucoside]	> 200	> 200	> 200	> 200	> 200	–	–	–	–
> 200	COC/C=C/c1cc(OC)c2c(c1)[C@H](CO)[C@H](c1ccc(O[C@@H]3O[C@H](CO)[C@@H](O)[C@H](O)[C@H]3O)c(OC)c1)O2 [Compound 13, (7S, 8R) 9′-methoxy-dehydrodiconiferyl alcohol 4-O-β-D-glucopyranoside]	> 200	> 200	> 200	> 200	> 200	–	–	–	–
> 200	COc1cc([C@H](O)[C@@H](CO)Oc2ccc(/C=C/CO)cc2OC)ccc1O[C@@H]1O[C@H](CO)[C@@H](O)[C@H](O)[C@H]1O [Compound 15, citrusin A]	> 200	> 200	> 200	> 200	> 200	–	–	–	–
> 200	COc1cc([C@H](O)[C@@H](CO)Oc2c(OC)cc(/C=C/CO)cc2OC)ccc1O[C@@H]1O[C@H](CO)[C@@H](O)[C@H](O)[C@H]1O [Compound 16, citrusin B]	> 200	> 200	> 200	> 200	> 200	–	–	–	–

Continued, compound first:

Compound	IC50 [5] [µM]	IC50 ([1]; Homo sapiens) [µM]	IC50 [2, 7] [µM]	IC50 [3] [µM]	IC50 ([4]; Homo sapiens) [µM]	IC50 ([6]; Homo sapiens) [µM]	IC50 ([2]; MKN45, 48 h) [µM]	IC50 [4] [µM]	IC50 [6] [µM]	IC50 [1] [µM]
C[C@]12CC[C@H](O)C[C@@]1(O)CCC1C2CC[C@]2(C)[C@@H](C3=CC(=O)OC3)CC[C@]12O (stereo partly shown) [Compound 4, perlplogemn]	–	–	–	–	–	–	9.5 ± 0.7	17.4 ± 2.4	22.2 ± 1.1	–
CO[C@H]1C[C@H](OC2CC[C@]3(C)C4CC[C@]5(C)[C@@H](C6=CC(=O)OC6)CC[C@]5(O)C4CC[C@]3(O)C2)O[C@H](C)[C@H]1O[C@@H]1O[C@H](CO)[C@@H](O)[C@H](O)[C@H]1O (stereo partly shown) [Compound 5, periplocin]	> 200	< 0.1	< 0.1	> 200	< 0.1	< 0.1	–	–	–	–
COc1cc([C@@H](O)[C@@H](CO)Oc2c(OC)cc(/C=C/CO)cc2OC)cc(OC)c1O[C@@H]1O[C@H](CO)[C@@H](O)[C@H](O)[C@H]1O [Compound 14, picraquassioside C]	> 200	> 200	> 200	> 200	> 200	> 200	–	–	–	–
O=c1c(O)c(-c2ccc(O)c(O)c2)oc2cc(O)cc(O)c12 [Quercetin, reference compound]	11.1 ± 1.4	–	–	> 50	–	–	–	–	–	–
N.N.[Cl][Pt][Cl] [cisplatin, reference compound]	–	–	–	–	–	–	7 ± 0.3	19.5 ± 6.7	52.8 ± 5.3	7 ± 0.7
scopoletin [Compound 28]	–	–	–	–	–	–	52.8 ± 5.3	> 200	> 200	> 200
